Source: US8901072B2, “Glycopeptide and lipoglycopeptide antibiotics with improved solubility” (The Medicines Company, priority 2009, dated 2014)
In brackets after ≈: the same amount, converted by molar mass.

Key:
[1] = Solubility in phosphate buffered saline; format: physicochemical; conditions: pH 7.4
Description: To a sample of the material of known mass were added known volumes of phosphate buffered saline until complete dissolution is observed. Suspensions were centrifuged for 5 min at 10000 rpm. […] Upon complete dissolution, the solution is diluted until the final concentration is 0.5 mg/mL to ensure that the material remains soluble over the entire range of concentrations.

S. aureus ATCC 13709 = test: In vitro antibacterial susceptibility (MIC, broth microdilution); format: cell-based; conditions: for MIC against S. aureus ATCC 13709, CAMHB: cation-adjusted Mueller-Hinton broth, 37° C., 18 h; for Antibacterial activity compared with oritavancin 5: deduced from the MIC data of Table 2
Description: Susceptibility of S. aureus strain ATCC13709 to oritavancin (5) and synthesized compounds was determined following the guidelines set by the Clinical and Laboratory Standards Institute (formerly the National Committee for Clinical Laboratory Standards) (M26-A). Compounds were serially diluted two-fold in either DMSO (Oritavancin 5) or in PBS and transferred to cation-adjusted Mueller Hinton broth (CAMHB; Becton Dickinson). 50 μL of compounds diluted in CAMHB was mixed with 100 μL of bacteria diluted in CAMHB in 96-well microtiter plates. The final number of micro-organisms in the assay was 5×10^5 c.f.u. per mL and the final concentration of DMSO in the assay, if present, was 1.25%. All solutions may contain 0.002% Tween as indicated. Assays were set up in duplicate and incubated at 37° C. for 18 h. The concentration of compound that inhibited visible growth was reported as the minimum inhibitory concentration (MIC).

[2] = 10 mM phosphate buffered saline (0.138 M NaCl, 2.7 mM KCl)

SMILES	Solubility (mg/mL) PBS [1]	Solubility (mg/mL) PBS [1, 2]	MIC against S. aureus ATCC 13709, CAMHB + 0.002% tween (S. aureus ATCC 13709)	MIC against S. aureus ATCC 13709, CAMHB + 50% human serum (S. aureus ATCC 13709)	MIC against S. aureus ATCC 13709, CAMHB + 50% mouse serum (S. aureus ATCC 13709)	MIC against S. aureus ATCC 13709, CAMHB + 50% rat serum (S. aureus ATCC 13709)	MIC against S. aureus ATCC 13709, CAMHB (S. aureus ATCC 13709)	Antibacterial activity compared with oritavancin 5 (S. aureus ATCC 13709)
CC(=O)[O-].CNC(CC(C)C)C(=O)NC1C(=O)NC(CC(N)=O)C(=O)NC2C(=O)NC3C(=O)NC(C(=O)NC(C(=O)SCC[N+](C)(C)C)c4cc(O)cc(O)c4-c4cc3ccc4O)C(OC3CC(C)(N)C(O)C(C)O3)c3ccc(c(Cl)c3)Oc3cc2cc(c3OC2OC(CO)C(O)C(O)C2OC2CC(C)(NCc3ccc(-c4ccc(Cl)cc4)cc3)C(O)C(C)O2)Oc2ccc(cc2Cl)C1O (centres unmarked) [98 (acetate salt)]	20 mg/mL							
CC(C)CC(C(=O)NC1C(=O)NC(CC(N)=O)C(=O)NC2C(=O)NC3C(=O)NC(C(=O)NC(C(=O)O)c4cc(O)cc(O)c4-c4cc3ccc4O)C(OC3CC(C)(N)C(O)C(C)O3)c3ccc(c(Cl)c3)Oc3cc2cc(c3OC2OC(CO)C(O)C(O)C2OC2CC(C)(NCc3ccc(-c4ccc(Cl)cc4)cc3)C(O)C(C)O2)Oc2ccc(cc2Cl)C1O)N(C)C(=O)OCOC(=O)CCC(=O)O (centres unmarked) [Compound 7]		<0.5 mg/mL	0.125 µg/mL	0.5 µg/mL	0.5 µg/mL	0.25 µg/mL	2 µg/mL (≈ 1.02 µM)	within an order of magnitude of that of oritavancin 5
CC(C)CC(C(=O)NC1C(=O)NC(CC(N)=O)C(=O)NC2C(=O)NC3C(=O)NC(C(=O)NC(C(=O)O)c4cc(O)cc(O)c4-c4cc3ccc4O)C(OC3CC(C)(N)C(O)C(C)O3)c3ccc(c(Cl)c3)Oc3cc2cc(c3OC2OC(CO)C(O)C(O)C2OC2CC(C)(NCc3ccc(-c4ccc(Cl)cc4)cc3)C(O)C(C)O2)Oc2ccc(cc2Cl)C1O)N(C)C(=O)CCC(=O)N(CC(=O)O)CC(=O)O (centres unmarked) [Compound 13]		5.5 mg/mL (≈ 2740 µM)	2 µg/mL	64 µg/mL	64 µg/mL	32 µg/mL	4 µg/mL (≈ 1.99 µM)	weaker activities
CC(C)CC(C(=O)NC1C(=O)NC(CC(N)=O)C(=O)NC2C(=O)NC3C(=O)NC(C(=O)NC(C(=O)O)c4cc(O)cc(O)c4-c4cc3ccc4O)C(OC3CC(C)(N)C(O)C(C)O3)c3ccc(c(Cl)c3)Oc3cc2cc(c3OC2OC(CO)C(O)C(O)C2OC2CC(C)(NCc3ccc(-c4ccc(Cl)cc4)cc3)C(O)C(C)O2)Oc2ccc(cc2Cl)C1O)N(C)C(=O)OCOC(=O)CCC(=O)N(CC(=O)O)CC(=O)O (centres unmarked) [Compound 20]		5.5 mg/mL (≈ 2640 µM)	4 µg/mL	16 µg/mL	16 µg/mL	2 µg/mL	4 µg/mL (≈ 1.92 µM)	weaker activities
CNC(CC(C)C)C(=O)NC1C(=O)NC(CC(N)=O)C(=O)NC2C(=O)NC3C(=O)NC(C(=O)NC(C(=O)NCCCNCCCCNCCCN)c4cc(O)cc(O)c4-c4cc3ccc4O)C(OC3CC(C)(N)C(O)C(C)O3)c3ccc(c(Cl)c3)Oc3cc2cc(c3OC2OC(CO)C(O)C(O)C2OC2CC(C)(NCc3ccc(-c4ccc(Cl)cc4)cc3)C(O)C(C)O2)Oc2ccc(cc2Cl)C1O (centres unmarked) [Compound 24]		≧100 mg/mL	0.5 µg/mL	1 µg/mL	0.06 µg/mL	0.06 µg/mL	1 µg/mL (≈ 0.506 µM)	within an order of magnitude of that of oritavancin 5
CNC(CC(C)C)C(=O)NC1C(=O)NC(CC(N)=O)C(=O)NC2C(=O)NC3C(=O)NC(C(=O)NC(C(=O)OCC(=O)NCCCNCCCCNCCCN)c4cc(O)cc(O)c4-c4cc3ccc4O)C(OC3CC(C)(N)C(O)C(C)O3)c3ccc(c(Cl)c3)Oc3cc2cc(c3OC2OC(CO)C(O)C(O)C2OC2CC(C)(NCc3ccc(-c4ccc(Cl)cc4)cc3)C(O)C(C)O2)Oc2ccc(cc2Cl)C1O (centres unmarked) [Compound 28]		≧100 mg/mL	0.125 µg/mL	0.25 µg/mL	0.25 µg/mL	0.063 µg/mL	2 µg/mL (≈ 0.983 µM)	within an order of magnitude of that of oritavancin 5
CC(C)CC(C(=O)NC1C(=O)NC(CC(N)=O)C(=O)NC2C(=O)NC3C(=O)NC(C(=O)NC(C(=O)O)c4cc(O)cc(O)c4-c4cc3ccc4O)C(OC3CC(C)(N)C(O)C(C)O3)c3ccc(c(Cl)c3)Oc3cc2cc(c3OC2OC(CO)C(O)C(O)C2OC2CC(C)(NCc3ccc(-c4ccc(Cl)cc4)cc3)C(O)C(C)O2)Oc2ccc(cc2Cl)C1O)N(C)C(=O)CNCCCNCCCCNCCCN (centres unmarked) [Compound 36]			0.06 µg/mL	0.125 µg/mL	0.25 µg/mL	0.125 µg/mL	1 µg/mL (≈ 0.491 µM)	
CC(C)CC(C(=O)NC1C(=O)NC(CC(N)=O)C(=O)NC2C(=O)NC3C(=O)NC(C(=O)NC(C(=O)O)c4cc(O)cc(O)c4-c4cc3ccc4O)C(OC3CC(C)(N)C(O)C(C)O3)c3ccc(c(Cl)c3)Oc3cc2cc(c3OC2OC(CO)C(O)C(O)C2OC2CC(C)(NCc3ccc(-c4ccc(Cl)cc4)cc3)C(O)C(C)O2)Oc2ccc(cc2Cl)C1O)N(C)C(=O)OCOC(=O)CNCCCNCCCCNCCCN (centres unmarked) [Compound 38]		<0.5 mg/mL	0.25 µg/mL	1 µg/mL	1 µg/mL	0.5 µg/mL	2 µg/mL (≈ 0.948 µM)	within an order of magnitude of that of oritavancin 5
CC(C)CC(C(=O)NC1C(=O)NC(CC(N)=O)C(=O)NC2C(=O)NC3C(=O)NC(C(=O)NC(C(=O)O)c4cc(O)cc(O)c4-c4cc3ccc4O)C(OC3CC(C)(N)C(O)C(C)O3)c3ccc(c(Cl)c3)Oc3cc2cc(c3OC2OC(CO)C(O)C(O)C2OC2CC(C)(NCc3ccc(-c4ccc(Cl)cc4)cc3)C(O)C(C)O2)Oc2ccc(cc2Cl)C1O)N(C)C(=O)OCOC(=O)C(N)CCCCN (centres unmarked) [Compound 44]		<0.5 mg/mL	0.5 µg/mL	4 µg/mL	0.25 µg/mL	0.5 µg/mL	4 µg/mL (≈ 2 µM)	within an order of magnitude of that of oritavancin 5
CC(C)CC(C(=O)NC1C(=O)NC(CC(N)=O)C(=O)NC2C(=O)NC3C(=O)NC(C(=O)NC(C(=O)O)c4cc(O)cc(O)c4-c4cc3ccc4O)C(OC3CC(C)(NC(=O)OCOC(=O)C(N)CCCCN)C(O)C(C)O3)c3ccc(c(Cl)c3)Oc3cc2cc(c3OC2OC(CO)C(O)C(O)C2OC2CC(C)(NCc3ccc(-c4ccc(Cl)cc4)cc3)C(O)C(C)O2)Oc2ccc(cc2Cl)C1O)N(C)C(=O)OCOC(=O)C(N)CCCCN (centres unmarked) [Compound 46]		<0.5 mg/mL	0.25 µg/mL	0.5 µg/mL	1 µg/mL	0.25 µg/mL	1 µg/mL (≈ 0.455 µM)	within an order of magnitude of that of oritavancin 5
CNC(CC(C)C)C(=O)NC1C(=O)NC(CC(N)=O)C(=O)NC2C(=O)NC3C(=O)NC(C(=O)NC(C(=O)SCC[N+](C)(C)C)c4cc(O)cc(O)c4-c4cc3ccc4O)C(OC3CC(C)(N)C(O)C(C)O3)c3ccc(c(Cl)c3)Oc3cc2cc(c3OC2OC(CO)C(O)C(O)C2OC2CC(C)(NCc3ccc(-c4ccc(Cl)cc4)cc3)C(O)C(C)O2)Oc2ccc(cc2Cl)C1O (centres unmarked) [Compound 98]			0.25 µg/mL	0.25 µg/mL	2 µg/mL	0.125 µg/mL	1 µg/mL	within an order of magnitude of that of oritavancin 5
